Assay results reported in patent publication US10370697B2, “Propeptide-luciferase fusion proteins and methods of use thereof” (THE BROAD INSTITUTE, INC., priority 2011, dated 2019).

The compounds below were run on MIN6 mouse beta cell line (assay: Luciferase secretion, preproamylin-Gaussia luciferase (PAG) reporter). Conditions: 1 hour at the indicated glucose concentrations; 25 uM glipizide, 50 uM IBMX, 20 uM forskolin, 40 mM KCl, 20 uM PMA.
Assay type: cell-based
Protocol: FIG. 4 is a graph showing the pre-proamylin-luciferase reporter in MIN6 cells responds as predicted to known insulin secretagogues. Cells were treated for 1 hour at the indicated glucose concentrations with either DMSO, 25 uM glipizide, 2.5 uM glucokinase activator (GKA), 50 uM 3-isobutyl-1-methylxanthine (IBMX), 20 uM forskolin, 40 mM potassium chloride (KCl), or 20 uM phorbol myristate acetate (PMA).
For standard secretion assays, MIN6 and INS-1E cells were plated in 96-well format at a density of 4×10^4 cells per well in 100 μL of their respective growth media and incubated overnight at 37° C. in 5% CO2 to allow attachment. Cells were washed once with PBS and incubated for 1 hour at 37° C. in sterile, 0.45 μm-filtered Krebs Ringer Buffer (KRB) containing 138 mM NaCl, 5.4 mM KCl, 2.6 mM MgCl2, 2.6 mM CaCl2, 5 mM NaHCO3, 10 mM HEPES and 5 g/L bovine serum albumin (Sigma®). The cells were then washed in KRB once and stimulated for 1 hour in 100 μL of fresh KRB containing varying amounts of glucose and compounds. The insulin concentration was determined using an insulin ELISA (ALPCO®) with the supplied protocol. Luciferase activity was determined from the same samples by adding the coelenterazine substrate (Nanolight®) to the supernatant to a final concentration of 20 μM and reading on a standard plate reader (Biotek™, Winooski, Vt.).
The preproamlyin constructs was introduced into the MIN6 mouse beta cell line (FIGS. 3A and 3B).

SMILES | luciferase activity (luminescence)
CC(C)Cn1c(=O)n(C)c(=O)c2[nH]cnc21 [IBMX, 3-isobutyl-1-methylxanthine] | increased luminescence in a dose-dependent manner
[Cl-].[K+] [KCl, potassium chloride] | increased luminescence in a dose-dependent manner
CCCCCCCCCCCCCC(=O)O[C@@H]1[C@@H](C)[C@@]2(O)[C@@H](C=C(CO)C[C@]3(O)C(=O)C(C)=C[C@@H]23)[C@@H]2C(C)(C)[C@]12OC(C)=O [PMA, phorbol myristate acetate] | increased luminescence in a dose-dependent manner
Cc1cnc(C(=O)NCCc2ccc(S(=O)(=O)NC(=O)NC3CCCCC3)cc2)cn1 [glipizide] | did not increase luciferase activity

The compounds below were run on GLUTag mouse L-cell line (assay: Luciferase secretion, proglucagon-luciferase (G2) reporter in L cells). Conditions: not given.
Assay type: cell-based
Protocol: The proglucagon G^2 construct was also introduced into the GLUTag mouse L-cell line. Cells were stimulated with Forskolin/IBMX, KCl, glipizide, PMA, and L-glutamine. Luciferase activity of the supernatant was determined.

SMILES | luciferase secretion (luciferase activity of the supernatant)
[Cl-].[K+] [KCl, potassium chloride] | secreted luciferase
NC(=O)CC[C@H](N)C(=O)O [L-glutamine] | no secretion of luciferase
CCCCCCCCCCCCCC(=O)O[C@@H]1[C@@H](C)[C@@]2(O)[C@@H](C=C(CO)C[C@]3(O)C(=O)C(C)=C[C@@H]23)[C@@H]2C(C)(C)[C@]12OC(C)=O [PMA, phorbol myristate acetate] | secreted luciferase
Cc1cnc(C(=O)NCCc2ccc(S(=O)(=O)NC(=O)NC3CCCCC3)cc2)cn1 [glipizide] | no secretion of luciferase

Each compound was assayed on Alpha TC1 mouse alpha cell line (assay: Luciferase secretion, proglucagon-luciferase (G2) reporter in alpha cells). Conditions: glucose 0-300 mg/dL (0-16.7 mM).
Assay type: cell-based
Protocol: The preglucagon G^2 construct was introduced into the Alpha TC1 mouse alpha cell line. Cells were stimulated with IBMX, arginine, or potassium chloride (KCl) and varying amounts of glucose in the range of 0-300 mg/dL (0-16.7 mM). Luciferase activity of the supernatant was determined (FIG. 6).

SMILES | luciferase secretion (luciferase activity of the supernatant)
CC(C)Cn1c(=O)n(C)c(=O)c2[nH]cnc21 [IBMX, 3-isobutyl-1-methylxanthine] | no secretion of luciferase
[Cl-].[K+] [KCl, potassium chloride] | secreted luciferase
N=C(N)NCCC[C@H](N)C(=O)O [arginine] | secreted luciferase

Each compound was assayed on MIN6 cells expressing proinsulin-luciferase construct (assay: High-throughput luciferase secretion screen, proinsulin-luciferase reporter, 384-well). Conditions: difference of Z-score with and without glucose.
Assay type: cell-based, mouse
Protocol: MIN6 and INS-1E cells were expanded to 80% confluence in their respective growth media, washed once in PBS and incubated for 1 hour at 37° C. in KRB without glucose. Cells were then dissociated, spun at 300 g×2 minutes, resuspended in fresh KRB without glucose and filtered through 40 μm mesh (Becton Dickenson®). Next, the cells were counted and diluted in KRB to 1×10^6 cells per mL, and glucose was added as required for each experiment. Cells were then seeded in 384-well format, 3×10^4 cells in 30 μL per well, using a Multidrop™ Combi device (Thermo Scientific®, Billerica, Mass.). Compounds from the Pharmakon 1600 Collection (Microsource Discovery Systems™, Gaylordsville, Conn.) were pinned into each well using a CyBio® Vario (CyBio®, Jena, Germany) to a final concentration of 30 μM, and the plates were then incubated for 1 hour at 37° C. The plates were then spun at 300 g×2 minutes and the supernatant transferred to a new 384-well plate. Coelenterazine substrate was then added to a final concentration of 20 μM and luciferase activity determined using a standard plate reader (Biotek®).
For the high-throughput screens, the Z-score of each test compound was calculated using the formula: […]
where x is the log-transformed, signal decay-adjusted luciferase signal from a compound-treated well, μ is the mean of the log-transformed luciferase signals from the DMSO-treated wells on the same plate, and a is the standard deviation of the log-transformed luciferase signals of the DMSO-treated wells across all plates (to allow for cross-plate comparison of compounds). Prior to calculating the Z-score, a row-based correction factor was applied to all luciferase readings to adjust for the rapid signal decay occurring during the course of each 384-well plate read. The signal decay was modeled as a logarithmic function (Microsoft® Excel) and then used to adjust each well's luciferase reading based on the corresponding row within the plate.
We performed a pilot chemical screen at a substimulatory glucose concentration (100 mg/dL) in MIN6 cells using a collection of 1600 known bioactive small molecules, with the sulfonylurea glipizide included as a positive control. […] Several commonly used drugs without known links to beta-cell function caused significant increases in luciferase secretion in our assay (compounds summarized in Table 1).
As there is a well-recognized need for glucose-dependent small-molecule agonists of insulin secretion, we subsequently evaluated whether our assay could be adapted to find such secretagogues. We repeated the 1600-compound screen in the presence and absence of a substimulatory glucose concentration (100 mg/dL).

SMILES | Z-score Δ
CC(=O)[C@@]1(O)CC[C@H]2[C@@H]3CCC4=CC(=O)CC[C@]4(C)[C@H]3CC[C@@]21C [Hydroxyprogesterone] | 15.6

Same assay, conditions: luciferase secretion, 1600 compound screen, 100 mg/dL glucose, 30 μM, 1 hour, Z-score vs DMSO wells

SMILES | Z-score
CN(C)CC[C@@H](c1ccc(Cl)cc1)c1ccccn1 [(S)-chlorpheniramine] | 31.8
CCN(CC)CCNC(C(=O)OCCC(C)C)c1ccccc1 (stereo not drawn) [Camylofine] | 23.8
C[C@@H]1CC(=O)NN=C1c1ccc(NN=C(C#N)C#N)cc1 [Levosimendan] | 40.7
Oc1ccc(OCc2ccccc2)cc1 [Monobenzone] | 38.7
CCN(CC)CCOC(=O)C(Cc1cccc2ccccc12)CC1CCCO1 (stereo not drawn) [Nafronyl] | 25.4
Cc1ccccc1C(OCCN(C)C)c1ccccc1 (stereo not drawn) [Orphenadrine] | 27.4
Nc1c2c(nc3ccccc13)CCCC2 [Tacrine] | 38.8
Nc1nc(N)c2nc(-c3ccccc3)c(N)nc2n1 [Triamterene] | 76.3
OC(CCN1CCCCC1)(c1ccccc1)C1CCCCC1 (stereo not drawn) [Trihexyphenidyl] | 50.5

Same assay, conditions: luciferase secretion, repeated 1600-compound screen, 100 mg/dL glucose, 30 μM, 1 hour

SMILES | Z-score With Glucose
COc1c2ccoc2cc2oc(=O)ccc12 [Bergapten] | 20.9
CCN(CC)CCNC(C(=O)OCCC(C)C)c1ccccc1 (stereo not drawn) [Camylofine] | 4.7
Clc1ccc(Cn2c(CN3CCCC3)nc3ccccc32)cc1 [Clemizole] | 12.2
CC(=O)[C@@]1(O)CC[C@H]2[C@@H]3CCC4=CC(=O)CC[C@]4(C)[C@H]3CC[C@@]21C [Hydroxyprogesterone] | 18.3
Oc1ccc(OCc2ccccc2)cc1 [Monobenzone] | 31.8
CCN(CC)CCOC(=O)C(Cc1cccc2ccccc12)CC1CCCO1 (stereo not drawn) [Nafronyl] | 17.8
CCCNCC(O)COc1ccccc1C(=O)CCc1ccccc1 (stereo not drawn) [Propafenone] | 10.5
O=C(CCCN1CCC2(CC1)C(=O)NCN2c1ccccc1)c1ccc(F)cc1 [Spiperone] | 9.0

Same assay, conditions: luciferase secretion, repeated 1600-compound screen, absence of glucose, 30 μM, 1 hour

SMILES | Z-score Without Glucose
COc1c2ccoc2cc2oc(=O)ccc12 [Bergapten] | 2.9
CCN(CC)CCNC(C(=O)OCCC(C)C)c1ccccc1 (stereo not drawn) [Camylofine] | 0.2
COc1ccccc1OCCNCC(O)COc1cccc2[nH]c3ccccc3c12 (stereo not drawn) [Carvedilol] | 1.5
Clc1ccc(Cn2c(CN3CCCC3)nc3ccccc32)cc1 [Clemizole] | 0.4
CC(=O)[C@@]1(O)CC[C@H]2[C@@H]3CCC4=CC(=O)CC[C@]4(C)[C@H]3CC[C@@]21C [Hydroxyprogesterone] | 2.7
Oc1ccc(OCc2ccccc2)cc1 [Monobenzone] | 5.6
CCN(CC)CCOC(=O)C(Cc1cccc2ccccc12)CC1CCCO1 (stereo not drawn) [Nafronyl] | 3.4
CCCNCC(O)COc1ccccc1C(=O)CCc1ccccc1 (stereo not drawn) [Propafenone] | 1.5
O=C(CCCN1CCC2(CC1)C(=O)NCN2c1ccccc1)c1ccc(F)cc1 [Spiperone] | −2.8

Same assay, conditions: screen in presence and absence of 100 mg/dL glucose

SMILES | luciferase secretion
Cc1cnc(C(=O)NCCc2ccc(S(=O)(=O)NC(=O)NC3CCCCC3)cc2)cn1 [glipizide] | caused luciferase secretion regardless of the ambient glucose level
